Test results as given in paper PMC3991330 (Structure(London, England:1993), 2014).

Legend:
TIPΔD2 [1] = target: T1, TIPΔD2 (Methanopyrus kandleri, UniProt Q8TZC3, DEL143-290); assay: native nanoelectrospray ionization mass spectrometry; assay type: binding; details: tightly bound; co-purified from E. coli host
mkTIP49 = mkTIP49 (Methanopyrus kandleri, UniProt Q8TZC3); assay: malachite green phosphate release ATPase assay; assay type: biochemical; details: optimum 75-80 °C
TIPΔD2 [2] = target: T1, TIPΔD2; assay: malachite green phosphate release ATPase assay; assay type: biochemical
native MS = target: the molecule itself; assay: native MS

For `Nc1ncnc2c1ncn2[C@@H]1O[C@H](COP(=O)(O)OP(=O)(O)O)[C@@H](O)[C@H]1O` [ADP], the “native nanoelectrospray ionization mass spectrometry” value (TIPΔD2 [1]) was “Both full-length mkTIP49 and TIPΔD2 contain a tightly bound ADP cofactor”.

With `Nc1ncnc2c1ncn2[C@@H]1O[C@H](COP(=O)(O)OP(=O)(O)OP(=O)(O)O)[C@@H](O)[C@H]1O` [ATP] the “malachite green phosphate release ATPase assay (PiColorLock ALS)” value (mkTIP49) was “we measured the intrinsic ATPase activity of mkTIP49 and mutants thereof” and the “malachite green phosphate release ATPase assay (PiColorLock ALS)” value (TIPΔD2 [2]) was “deletion of D2 had a dramatic stimulating effect on the catalytic activity of mkTIP49”.

B1: Methanopyrus kandleri TIP49 protein (mkTIP49), wild type, full length (enzyme, UniProt Q8TZC3 1-455, looked up)
chain: MVEIKEIGEVSTEETSPGAHSHITGLGLDENLKAKPVGDGLVGQEEAREAAGIVVEMVKQGRRAGHGLLLVGPPGTGKTAIAYGIARELGEDVPFVSISGSEIYGTNLSKTEFLQQAIRRAIGVEFTETREVIEGKVESLEIERAKHPLSPYMEVPSGAIIELKTQDDHRRFKVPEEIAIQLVQAGVREGDVIQIDVESGHVTKLGRAKDALEEEEEELLGVHAVELPEGPVQKKKEIKRVVTLHDLDMANVRAGRLLGFREEEITDEIRQKVDERVQKMVDEGEASLVPGVLFIDEAHMLDIEAFAFLNRSLEEEIAPILVMATNRAMAKVRGTDEEAPHGIPGDLLDRMLIARTRPFERHEIHEIIGIRARVQDIQLTDEAHEYLTDLGEEKSIRYATRLLEPARIVAEKEGSEVVEKKHVERVEEVFTDVSDSVEYMERMRRELPVMKYLTG
With B1 the “stoichiometry N” value (native MS) was 12.

B2: isolated mkTIP49 D2 insertion domain (TIPins, residues 124–290) (domain or fragment, Methanopyrus kandleri, UniProt Q8TZC3 124-290, looked up)
chain: VEFTETREVIEGKVESLEIERAKHPLSPYMEVPSGAIIELKTQDDHRRFKVPEEIAIQLVQAGVREGDVIQIDVESGHVTKLGRAKDALEEEEEELLGVHAVELPEGPVQKKKEIKRVVTLHDLDMANVRAGRLLGFREEEITDEIRQKVDERVQKMVDEGEASLVP
B2 was tested, and the “stoichiometry N” value (native MS) was 2.
